This assay in a line: Binding affinity to mouse brain tubulin assessed as dissociation constant by SPR analysis. Background: Surface plasmon resonance follows binding to a sensor surface in real time, without labels.

As a reminder, the Kd is the free concentration of one partner at which half of the binding sites on the other are occupied at equilibrium, for simple one-to-one binding.

For `O=[N+]([O-])CCc1cccc2ccccc12`, the Kd worked out at 80.9 µM.

These data come from ChEMBL document CHEMBL6134834, “Aromatic nitroolefin with inhibition efficacy in triple-negative breast cancer cells by dual targeting RXRα and tubulins” (Eur J Med Chem, 2025).
